# Active and inactive are the calls of the source. The rule behind the calls is not given here.
# Target: Caspase-6 (Homo sapiens) (UniProt P55212)
# Experiment: human caspase-6 inhibitors, dose response, biochemical, VEID-R110 fluorescence, cherry-pick (AID 720632)
# Settings: caspase-6, VEID-R110 fluorogenic substrate; at 23.5 µM (top of the series)
# Sequence of Caspase-6 (Homo sapiens) (P55212 24-179 limits assumed): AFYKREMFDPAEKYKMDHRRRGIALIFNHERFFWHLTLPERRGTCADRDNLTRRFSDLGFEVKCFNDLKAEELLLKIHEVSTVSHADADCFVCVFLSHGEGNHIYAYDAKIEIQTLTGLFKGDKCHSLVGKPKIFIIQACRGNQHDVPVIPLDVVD
# Sequence of Caspase-6 (Homo sapiens) (P55212 194-293 limits assumed): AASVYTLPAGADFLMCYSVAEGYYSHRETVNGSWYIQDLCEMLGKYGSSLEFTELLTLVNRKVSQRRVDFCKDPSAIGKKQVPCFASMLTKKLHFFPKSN
row,SMILES,"activity change, negative = inhibition"
1,CCC(=O)Nc1ccc2c(c1)OC[C@@H](C)N(C(=O)CC)C[C@@H](C)[C@H](OC)CN(C)C2=O,inactive
2,CO[C@@H]1CN(C)C(=O)c2ccc(NC(=O)C3CC3)cc2OC[C@@H](C)N(Cc2cccc(F)c2)C[C@@H]1C,inactive

# Same assay, conditions: caspase-6, VEID-R110 fluorogenic substrate; at 26 µM (top of the series)
row,SMILES,"activity change, negative = inhibition"
1,COc1ccc(CN=C(N)N=C(N)N)cc1Cl,inactive
2,CN1CCN(NC(=O)NC2CCCCC2)CC1,inactive
3,Oc1ccc(/C=N/n2c(-c3ccccc3)n[nH]c2=S)cc1Br,inactive
4,CCC1=NN(C(=O)c2ccc(Cl)cc2)C(O)(c2ccc(C)cc2)C1 (centres undefined),inactive
5,Oc1c(CN2CCCCC2)ccc2cccnc12,inactive
6,CN1CCN(CC(=O)Nc2ccc(Cl)cc2Cl)CC1,inactive
7,CC1(Oc2cnc(Cl)c3ccccc23)CCN(Cc2ccc(OC(F)(F)F)cc2)C1 (centres undefined),inactive
8,CCCC(=O)Nc1ccc2c(c1)OC[C@@H](C)NC[C@H](C)[C@H](OC)CN(C)C2=O,inactive
9,CCc1noc(C)c1C(=O)Nc1ccc(S(=O)(=O)N2CCCC(C)C2)cc1 (centres undefined),inactive
10,Nc1ccc(Sc2ccccc2Cl)nc1,inactive
11,COc1cccc(/C=N/Nc2nc(C)cc(=O)[nH]2)c1OC,inactive
12,COc1cccc(C(NC(=O)C2CCN(CCCOc3ccccc3)CC2)c2ccccn2)c1 (centres undefined),inactive
13,CC(C)CCn1c(=O)c2ccccc2n2c(CCC(=O)NCC3CCCO3)nnc12 (centres undefined),inactive
14,COc1cc(-c2nnc(COC(=O)c3ccc([N+](=O)[O-])o3)o2)cc(OC)c1OC,inactive
15,CC(C)(C)NC(=O)C(=O)NN=C1CCCCCCCCCCC1,inactive
16,S=c1[nH]cc(-c2ccccc2)n1-c1cccc(Cl)c1,inactive
17,COc1cccc(CN2CCc3[nH]c(=S)[nH]c(=O)c3C2)c1,inactive
18,Cc1ccc(NC(=O)Nc2nnc(-c3ccccc3)o2)cc1,inactive
19,CC(C)(O)c1cn([C@@H]2C[C@@H]3O[C@@H](CO)CC[C@@H]3O[C@@H]2CCc2ccc(-c3ccncc3)cc2)nn1,inactive
20,CC1CCCN(CC(O)COC(c2ccccc2)c2ccccc2)C1 (centres undefined),inactive
21,O=C(Nc1ccccc1)C1CCN(S(=O)(=O)c2ccc3c(c2)OCCO3)CC1,inactive
22,CC(=O)Oc1cc(C(=O)OCC(=O)N2CCc3ccccc3C2)cc(OC(C)=O)c1OC(C)=O,inactive
23,Cc1cccc(C(=O)Nc2cccc(NC(=O)c3ccccc3)c2)c1,inactive
24,CCCN1C[C@H](C)[C@@H](OC)CN(C)C(=O)c2ccc(NC(=O)CC)cc2OC[C@H]1C,inactive
25,CCOc1ccc(N(CC(=O)Nc2cc(Cl)ccc2C)S(C)(=O)=O)cc1,inactive
26,CCN(C(=O)COC(=O)c1oc2ccccc2c1C)c1c(N)n(Cc2ccccc2)c(=O)[nH]c1=O,inactive

row,SMILES,"activity change, negative = inhibition"
1,CCOc1ccc(-c2n[nH]c(=S)n2Cc2ccccc2)cc1,inactive
2,CCOc1ccc(S(=O)(=O)NCCC(=O)NCC2(N3CCCCC3)CCCCC2)cc1,inactive
3,Cc1ccc(C)c(N2CCN(C(=O)CCCn3c(=S)[nH]c4cc5c(cc4c3=O)OCO5)CC2)c1,inactive
4,Cc1ccc(N2C(=O)Cc3ccccc3C2=O)cc1,inactive
5,CCCC(=O)Nc1ccc2c(c1)OC[C@H](C)NC[C@@H](C)[C@@H](OC)CN(C)C2=O,inactive
6,Cc1nc2ccc(NC(=O)CCC3CCCC3)cc2s1,inactive
7,Cn1c(C(=O)N2CCCC(Nc3ccc(F)cc3)C2)cc2ccccc21 (centres undefined),inactive
8,COP(=O)(OC)c1ccc(NCc2cc(O)ccc2O)cc1,inactive
9,O=C(NCc1ccncc1)c1ccc(OCc2ccccc2)cc1,inactive
10,COc1ccccc1N(Cc1ccccc1)S(=O)(=O)c1cccc(C(=O)Nc2ccccn2)c1,inactive
11,O=S(=O)(NCc1cccnc1)c1ccc(Cl)cc1,inactive
12,CO[C@H]1CN(C)C(=O)c2ccc(NC(C)=O)cc2OC[C@H](C)N(C(=O)CC2CC2)C[C@H]1C,inactive
13,NNC(=O)CC1=NNC(=O)C1,inactive
14,Nc1cc(C(Cl)=C(Cl)Cl)c(S(N)(=O)=O)cc1S(N)(=O)=O,inactive
15,CC1CCN(CCCNC(=O)COc2cc(=O)n(C)c3ccccc23)CC1,inactive
16,O=C(Cc1ccccn1)NCC[C@@H]1CC[C@@H](NC(=O)c2ccccc2F)[C@H](CO)O1,inactive
17,Cc1ccc(NC(=O)c2ocnc2C)cc1Cl,inactive
18,CC(=O)Nc1ccc(NC(=O)COC(=O)c2ccc([N+](=O)[O-])o2)cc1,inactive
19,O=C1NC(=O)C(Sc2ccccc2[N+](=O)[O-])C(=O)N1,inactive
20,CC(C)NC(=O)N1[C@H](CO)[C@@H](c2ccccc2)C12CN(C(=O)Cc1cccnc1)C2,inactive
21,COCCNc1nc(Nc2ccccc2Cl)c2sc(-c3ccccc3)cc2n1,inactive
22,CNC(=O)c1ccccc1NC(=O)C1CC(=O)N(C(C)C)C1 (centres undefined),inactive
23,CS(=O)(=O)c1ccc(Nc2nc(C(N)COCc3ccccc3)cs2)cc1 (centres undefined),inactive
24,CCCN1C[C@@H](C)[C@@H](OC)CN(C)C(=O)c2ccc(NC(=O)CC)cc2OC[C@H]1C,inactive
25,O=C([C@H]1[C@H](CO)[C@H]2Cn3c(cccc3=O)[C@H]2N1Cc1ccccn1)N1CCC(Cc2ccccc2)CC1,inactive
26,Nc1ccc(C(=O)N/N=C/c2cn(Cc3ccc(F)cc3)c3ccccc23)cc1,inactive

row,SMILES,"activity change, negative = inhibition"
1,CCc1nc2c(OCc3ccc(C(=O)OC)cc3)cccn2c1N(C)C(=O)c1ccc(C)cc1,inactive
2,O=C(CN1C(=O)NC2(CCc3ccccc32)C1=O)Nc1c(Cl)cccc1Cl (centres undefined),inactive
3,CCCN1C[C@H](C)[C@H](OC)CN(C)C(=O)c2ccc(NC(=O)c3ccccc3)cc2OC[C@H]1C,inactive
4,Cn1cc(C(CC(=O)O)C(=O)O)c2ccccc21 (centres undefined),inactive
5,O=C(ONC(=O)C1CCCCC1C(=O)NOC(=O)c1ccccc1)c1ccccc1 (centres undefined),inactive
6,CC1CCN(C(=O)Cn2cc(C(F)(F)F)ccc2=O)c2ccccc2S1 (centres undefined),inactive
7,O=C(NC(=S)NNS(=O)(=O)c1ccccc1)c1ccccc1[N+](=O)[O-],inactive
8,CO[C@H]1CN(C)C(=O)c2ccc(NC(=O)C3CC3)cc2OC[C@@H](C)N(Cc2ccccc2)C[C@@H]1C,inactive
9,S=c1[nH]c2cc(Cl)c3cccnc3c2o1,inactive
10,O=C(CNc1cccc(S(=O)(=O)N2CCCC2)c1)Nc1cccc(Br)c1,inactive
11,C[C@@H]1CN([C@@H](C)CO)C(=O)Cc2cc(N(C)C)ccc2O[C@@H]1CN(C)Cc1ccccc1,inactive
12,O=C(COC(=O)c1ccc([N+](=O)[O-])o1)NC1CCCCC1,inactive
13,CN1C(=O)CCS(=O)(=O)C1c1ccc(Cl)c(Cl)c1 (centres undefined),inactive
14,CCC(=O)Nc1ccc2c(c1)OC[C@@H](C)N(C(=O)CC)C[C@H](C)[C@@H](OC)CN(C)C2=O,inactive
15,CO[C@H]1CN(C)C(=O)c2ccc(NC(=O)c3ccccc3)cc2OC[C@@H](C)N(C(=O)C2CC2)C[C@@H]1C,inactive
16,Cc1onc(NC(=O)NC(=O)c2c(F)cccc2Cl)c1Br,inactive
17,COc1cc2sc(C)nc2c2ccccc12,inactive
18,COc1ccc(OCCN2CCC(C(=O)NC(c3ccccn3)c3ccccc3OC)CC2)cc1 (centres undefined),inactive
19,O=C(CCCn1c(=S)[nH]c2cc3c(cc2c1=O)OCO3)N1CCN(c2ccccc2F)CC1,inactive
20,COc1ccc(NS(=O)(=O)c2cc(NC(=O)[C@H](C)NC(N)=O)ccc2N2CCCC2)cc1,inactive
21,COc1ccccc1N(CC(=O)NCCSCc1ccccc1Cl)S(C)(=O)=O,inactive
22,Cc1cc2c(NC(=O)Nc3ccc(F)cc3)cccc2nn1,inactive
23,CC(C)CNC(=O)c1cccc2c(-c3ccc(F)c(F)c3)coc12,inactive
24,COc1cc(/C=C2\SC(=O)NC2=O)ccc1Oc1ccc([N+](=O)[O-])cc1[N+](=O)[O-],inactive
25,Nc1cccnc1Oc1ccc(F)cc1F,inactive

# — PubChem BioAssay AID720632 (Broad Institute, 2013)
